# How the values were obtained:
# BAZ2A = tested on: BAZ2A; design: method as in PMID 25799074, PMID 25719566; conditions: cited from earlier work
# BAZ2A bromodomain [1] = biological target: T1, BAZ2A bromodomain (Homo sapiens, UniProt Q9UIF9); assay: AlphaScreen competition binding assay (BAZ2A bromodomain binding to acetylated peptide); conditions: for IC50: AlphaScreen dose-response; for remaining binding at 500 µM: single dose, compound concentration 500 μM, read-out: % residual BAZ2A activity; for decrease of binding of BAZ2A bromodomain to the acetylated peptide: tested at 500 μM, single dose in duplicate
# T1 construct: made in house
# T1 sequence (Q9UIF9 1793-1897 limits assumed): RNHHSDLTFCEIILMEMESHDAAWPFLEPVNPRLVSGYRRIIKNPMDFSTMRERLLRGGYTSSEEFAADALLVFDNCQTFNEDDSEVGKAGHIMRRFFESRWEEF
# Protocol: The 36 selected molecules were tested by AlphaScreen at single doses in duplicate. Six molecules (compounds 8, 9, 11, 14, 18, and 25) decreased binding of BAZ2A bromodomain to the acetylated peptide by at least 50% when tested at 500 μM. […]
# AlphaScreen assay was conducted as detailed in [11]. […]
# BAZ2A bromodomain [2] = biological target: T1, BAZ2A bromodomain; assay: as above; conditions: single dose 100 μM; IC50 not determined; read-out: Residual activity when tested in single dose
IC50 (BAZ2A bromodomain [1]),SMILES,further results
,Cn1cc(CCn2cnc(-c3cnn(C)c3)c2-c2ccc(C#N)cc2)cn1 [BAZ2-ICR],affinity for BAZ2A (in words) (BAZ2A): very high nanomolar range
> 200 µM,NC1CCCN(S(=O)(=O)c2cccc3cnccc23)C1 (stereo not shown) [Compound 8],remaining binding at 500 µM (BAZ2A bromodomain [1]): 49 ± 7%; decrease of binding of BAZ2A bromodomain to the acetylated peptide (BAZ2A bromodomain [1]): at least 50%
> 200 µM,O=S(=O)(NC1CCNC1)c1cccc2cnccc12 (stereo not shown) [Compound 9],remaining binding at 500 µM (BAZ2A bromodomain [1]): 44 ± 3%; decrease of binding of BAZ2A bromodomain to the acetylated peptide (BAZ2A bromodomain [1]): at least 50%
> 200 µM,C/N=C(/NC)NC1CCN(c2cc(OC)cc(OC)c2)CC1 [Compound 11],remaining binding at 500 µM (BAZ2A bromodomain [1]): 48 ± 5%; decrease of binding of BAZ2A bromodomain to the acetylated peptide (BAZ2A bromodomain [1]): at least 50%
,NC(=O)c1cc(OC2CCNCC2)ccn1 [Compound 13],remaining binding at 500 µM (BAZ2A bromodomain [1]): 75 ± 2%
> 200 µM,NCc1ccc(N2CCNC(=O)C2)cc1 [Compound 14],remaining binding at 500 µM (BAZ2A bromodomain [1]): 32 ± 4%; decrease of binding of BAZ2A bromodomain to the acetylated peptide (BAZ2A bromodomain [1]): at least 50%
> 200 µM,CC(=O)N1CCN(c2ccc(NC(=N)N)cc2)CC1 [Compound 18],remaining binding at 500 µM (BAZ2A bromodomain [1]): 37 ± 4%; decrease of binding of BAZ2A bromodomain to the acetylated peptide (BAZ2A bromodomain [1]): at least 50%
33.2 ± 0.3 µM,CCc1c(-c2csc(N=C(N)N)n2)[nH]c(C)c1C(C)=O [Compound 25],ligand efficiency (LE) (BAZ2A bromodomain [1]): 0.31 kcal/mol per heavy atom; lipophilic ligand efficiency (LLE) (BAZ2A bromodomain [1]): 2.4; remaining binding at 500 µM (BAZ2A bromodomain [1]): 5 ± 0.6%; decrease of binding of BAZ2A bromodomain to the acetylated peptide (BAZ2A bromodomain [1]): at least 50%
,NC1CCN(C(=O)c2ccc(=O)[nH]c2)CC1 [Compound 36],remaining binding at 500 µM (BAZ2A bromodomain [1]): 71 ± 3%
76.2 ± 8.6 µM,CCc1c(-c2csc(N)n2)[nH]c(C)c1C(C)=O [Compound 43],
57.9 ± 6 µM,CCc1c(-c2csc(CCCN)n2)[nH]c(C)c1C(C)=O [Compound 44],
109 ± 12.3 µM,CCc1c(-c2csc(CCNC)n2)[nH]c(C)c1C(C)=O [Compound 45],
33.3 ± 0.4 µM,CCc1c(-c2csc(N3CCNCC3)n2)[nH]c(C)c1C(C)=O [Compound 47],ligand efficiency (LE) (BAZ2A bromodomain [1]): 0.29 kcal/mol per heavy atom; lipophilic ligand efficiency (LLE) (BAZ2A bromodomain [1]): 1.9
94.6 ± 11.7 µM,CCc1c(-c2csc(C3CCNCC3)n2)[nH]c(C)c1C(C)=O [Compound 48],
47 ± 5 µM,CCc1c(-c2csc(C3CCCNC3)n2)[nH]c(C)c1C(C)=O (stereo not shown) [Compound 49],
76.8 ± 6.4 µM,CCc1c(-c2csc(C3CCCCN3)n2)[nH]c(C)c1C(C)=O (stereo not shown) [Compound 50],
93.5 ± 9.7 µM,CCc1c(-c2csc(C3COCCN3)n2)[nH]c(C)c1C(C)=O (stereo not shown) [Compound 52],
54 ± 0.2 µM,CCc1c(-c2csc(C3CCNC3)n2)[nH]c(C)c1C(C)=O (stereo not shown) [Compound 53],

IC50 (BAZ2A bromodomain [1]),SMILES,further results
61.3 ± 10.6 µM,CCc1c(-c2csc(C3(NC(C)=O)CCNC3)n2)[nH]c(C)c1C(C)=O (stereo not shown) [Compound 54],
114 ± 22.1 µM,CCc1c(-c2csc(C3CCN(C(C)=O)C3)n2)[nH]c(C)c1C(C)=O (stereo not shown) [Compound 55],
> 100 µM,CCc1c(-c2csc(C3CCN(C(N)=O)C3)n2)[nH]c(C)c1C(C)=O (stereo not shown) [Compound 56],
93.2 ± 10.1 µM,CCc1c(-c2csc(C3CCCN3C(C)=O)n2)[nH]c(C)c1C(C)=O (stereo not shown) [Compound 57],
> 100 µM,CCc1c(-c2csc(C3CCCN3C(N)=O)n2)[nH]c(C)c1C(C)=O (stereo not shown) [Compound 58],
74.2 ± 9.1 µM,CCc1c(-c2csc(CN3CCOCC3)n2)[nH]c(C)c1C(C)=O [Compound 59],
> 100 µM,CCc1c(-c2csc(Cc3ccc(N)cc3)n2)[nH]c(C)c1C(C)=O [Compound 60],
54 ± 0.2 µM,CCc1c(-c2csc(CN3CCNCC3)n2)[nH]c(C)c1C(C)=O [Compound 61],
53.9 ± 0.2 µM,CCc1c(-c2csc(NC3CCNCC3)n2)[nH]c(C)c1C(C)=O [Compound 62],
60.5 ± 9.4 µM,CCc1c(-c2csc(CN3CCC(N)CC3)n2)[nH]c(C)c1C(C)=O [Compound 63],
75.7 ± 9.2 µM,CCc1c(-c2csc(CN3CCN(C(C)=O)CC3)n2)[nH]c(C)c1C(C)=O [Compound 64],
54 ± 0.3 µM,CC(=O)c1c(C)[nH]c(-c2csc(CN3C(=O)CNC3=O)n2)c1C [Compound 65],
99.7 ± 10.9 µM,CCc1c(-c2csc(C3(N)CCCC3)n2)[nH]c(C)c1C(C)=O [Compound 66],
74.3 ± 4.7 µM,Cc1[nH]c(-c2csc(-c3cc[nH]n3)n2)c2c1C(=O)CCC2 [Compound 69],
54.6 ± 7.1 µM,CCc1c(-c2csc(-c3cnc[nH]3)n2)[nH]c(C)c1C(C)=O [Compound 72],
> 100 µM,CCc1c(-c2csc(N3CCNCC3)n2)[nH]c(C)c1C(N)=O [Compound 74],
,CCCNC(=O)c1c(C)[nH]c(-c2csc(N3CCNCC3)n2)c1CC [Compound 75],remaining binding at 100 µM (BAZ2A bromodomain [2]): > 50%
,CC(=O)c1c(C)[nH]c(-c2csc(N3CCNCC3)n2)c1-c1ccnn1C [Compound 76],remaining binding at 100 µM (BAZ2A bromodomain [2]): > 50%
